According to ChEMBL document CHEMBL4725294, “Centrally Active Multitarget Anti-Alzheimer Agents Derived from the Antioxidant Lead CR-6” (J Med Chem, 2020):
Active and inactive are the calls of the source. The rule behind the calls is not given here.

Experiments:
[1] = biological target: Beta-secretase 1 (Homo sapiens, UniProt P56817); assay: Inhibition human BACE1 expressed in baculovirus expression system using Panvera peptide as substrate measured after 60 mins by fluorescence assay; settings: read-out: IC50
[2] = system: Mus musculus; assay: Antialzheimer activity in APP/PS1 double mutant-transgenic C57BL6/J mouse model assessed as increase in GPX1 level at 10 mg/kg/day, ip for 4 weeks followed by compound washout and measured after 24 hrs by Western blot analysis; format: functional, organism-based
[3] = system: Mus musculus; assay: Antialzheimer activity in APP/PS1 double mutant-transgenic C57BL6/J mouse model assessed as reduction in soluble amyloid beta 40 level in cortex at 10 mg/kg/day, ip for 4 weeks followed by compound washout and measured after 24 hrs by ELISA; format: functional, organism-based
[4] = system: Mus musculus; assay: Antialzheimer activity in APP/PS1 double mutant-transgenic C57BL6/J mouse model assessed as reduction in Bace1 expression at 10 mg/kg/day, ip for 4 weeks followed by compound washout and measured after 24 hrs by Western blot analysis; format: functional, organism-based
[5] = Acute toxicity in C57BL6/J mouse assessed as piloerection at 15 mg/kg, ip measured after 10 to 15 mins; format: organism-based; settings: in vivo, time 10-15 min
[6] = Acute toxicity in C57BL6/J mouse at 15 mg/kg, ip measured after 3 hrs; format: organism-based; settings: in vivo
[7] = system: Mus musculus; assay: Antialzheimer activity in APP/PS1 double mutant-transgenic C57BL6/J mouse model assessed as increase in Nrf2 level at 10 mg/kg/day, ip for 4 weeks followed by compound washout and measured after 24 hrs by Western blot analysis; format: functional, organism-based
[8] = biological target: Cholinesterase (Homo sapiens, UniProt P06276)
Description: Inhibition of recombinant human BChE using butyrylthiocholine iodide as substrate preincubated for 15 mins followed by substrate addition by Ellman's method

[9] = Acute toxicity in C57BL6/J mouse assessed as ptosis at 15 mg/kg, ip measured after 10 to 15 mins; format: organism-based; settings: in vivo, time 10-15 min
[10] = system: Mus musculus; assay: Antialzheimer activity in APP/PS1 double mutant-transgenic C57BL6/J mouse model assessed as increase in Adam10 expression at 10 mg/kg/day, ip for 4 weeks followed by compound washout and measured after 24 hrs by Western blot analysis; format: functional, organism-based
[11] = system: Mus musculus; assay: Antialzheimer activity in APP/PS1 double mutant-transgenic C57BL6/J mouse model assessed as reduction in soluble amyloid beta 42 level in cortex at 10 mg/kg/day, ip for 4 weeks followed by compound washout and measured after 24 hrs by ELISA; format: functional, organism-based
[12] = Acute toxicity in C57BL6/J mouse assessed as reduction in locomotor activity at 15 mg/kg, ip measured after 10 to 15 mins; format: organism-based; settings: in vivo, time 10-15 min
[13] = biological target: Acetylcholinesterase (Homo sapiens, UniProt P22303)
Description: Inhibition of recombinant human AChE expressed in HEK293 cells using acetylthiocholine iodide as substrate preincubated for 15 mins followed by substrate addition by Ellman's method

[14] = system: Mus musculus; assay: Antialzheimer activity in APP/PS1 double mutant-transgenic C57BL6/J mouse model assessed as reduction in Bace1 gene expression at 10 mg/kg/day, ip for 4 weeks followed by compound washout and measured after 24 hrs by qPCR analysis; format: functional, organism-based
[15] = system: Mus musculus; assay: Antialzheimer activity in APP/PS1 double mutant-transgenic C57BL6/J mouse model assessed as increase in Adam10 gene expression at 10 mg/kg/day, ip for 4 weeks followed by compound washout and measured after 24 hrs by qPCR analysis; format: functional, organism-based
[16] = system: Mus musculus; assay: Antialzheimer activity in APP/PS1 double mutant-transgenic C57BL6/J mouse model assessed as increase in SOD2 level at 10 mg/kg/day, ip for 4 weeks followed by compound washout and measured after 24 hrs by double immunostaining assay; format: functional, organism-based
[17] = Acute toxicity in C57BL6/J mouse assessed as tremor at 15 mg/kg, ip measured after 10 to 15 mins; format: organism-based; settings: in vivo, time 10-15 min
[18] = system: Mus musculus; assay: Antialzheimer activity in APP/PS1 double mutant-transgenic C57BL6/J mouse model assessed as reduction in oxidized protein level at 10 mg/kg/day, ip for 4 weeks followed by compound washout and measured after 24 hrs by Western blot analysis; format: functional, organism-based
[19] = Acute toxicity in C57BL6/J mouse at 5 to 10 mg/kg, ip measured up to 24 hrs; format: organism-based; settings: in vivo, dose 5-10 mg/kg
[20] = system: Mus musculus; assay: Antialzheimer activity in APP/PS1 double mutant-transgenic C57BL6/J mouse model assessed as reduction in amyloid beta burden in cortex at 10 mg/kg/day, ip for 4 weeks followed by compound washout and measured after 24 hrs by hematoxylin staining based microscopic analysis; format: functional, organism-based
[21] = system: Mus musculus; assay: Improvement in memory impairment in APP/PS1 double mutant-transgenic C57BL6/J mouse model assessed as […] at 10 mg/kg/day, ip for 4 weeks followed by compound washout by maze two-object recognition test; format: functional, organism-based
[22] = in vitro; settings: PAMPA
Description: Permeability of compound in PBS/EtOH buffer (7:3) PAMPA-BBB assay

Chain of Acetylcholinesterase (P22303 whole entry): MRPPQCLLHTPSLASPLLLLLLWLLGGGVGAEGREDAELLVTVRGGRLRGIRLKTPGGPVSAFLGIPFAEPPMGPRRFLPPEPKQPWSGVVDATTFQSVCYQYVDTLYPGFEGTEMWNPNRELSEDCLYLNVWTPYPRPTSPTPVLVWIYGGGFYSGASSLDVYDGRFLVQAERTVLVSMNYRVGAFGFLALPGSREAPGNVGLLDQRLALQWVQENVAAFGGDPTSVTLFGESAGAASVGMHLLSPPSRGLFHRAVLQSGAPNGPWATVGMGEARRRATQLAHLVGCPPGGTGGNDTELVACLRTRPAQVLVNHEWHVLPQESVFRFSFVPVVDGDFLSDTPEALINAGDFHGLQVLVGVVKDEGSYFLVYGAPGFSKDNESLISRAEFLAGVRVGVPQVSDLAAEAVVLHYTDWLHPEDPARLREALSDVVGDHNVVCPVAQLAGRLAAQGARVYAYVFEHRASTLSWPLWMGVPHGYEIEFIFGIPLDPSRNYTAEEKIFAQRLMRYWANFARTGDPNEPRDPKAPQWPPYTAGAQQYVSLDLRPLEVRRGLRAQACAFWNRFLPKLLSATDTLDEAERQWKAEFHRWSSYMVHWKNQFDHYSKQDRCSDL
Chain of Beta-secretase 1 (P56817 whole entry): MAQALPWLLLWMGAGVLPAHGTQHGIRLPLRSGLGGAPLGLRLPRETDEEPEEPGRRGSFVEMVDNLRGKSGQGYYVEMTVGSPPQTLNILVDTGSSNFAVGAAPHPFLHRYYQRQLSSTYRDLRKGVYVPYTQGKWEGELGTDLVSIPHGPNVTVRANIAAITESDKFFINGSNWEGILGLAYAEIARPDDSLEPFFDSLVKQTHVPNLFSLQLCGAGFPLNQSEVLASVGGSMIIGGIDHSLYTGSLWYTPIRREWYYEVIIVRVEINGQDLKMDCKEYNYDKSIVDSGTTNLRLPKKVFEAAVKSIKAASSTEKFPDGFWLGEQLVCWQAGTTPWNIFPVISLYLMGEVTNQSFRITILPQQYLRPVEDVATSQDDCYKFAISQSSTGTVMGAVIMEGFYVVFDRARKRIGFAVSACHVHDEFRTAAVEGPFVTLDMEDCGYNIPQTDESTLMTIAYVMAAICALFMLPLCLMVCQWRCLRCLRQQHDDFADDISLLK
Chain of Cholinesterase (P06276 whole entry): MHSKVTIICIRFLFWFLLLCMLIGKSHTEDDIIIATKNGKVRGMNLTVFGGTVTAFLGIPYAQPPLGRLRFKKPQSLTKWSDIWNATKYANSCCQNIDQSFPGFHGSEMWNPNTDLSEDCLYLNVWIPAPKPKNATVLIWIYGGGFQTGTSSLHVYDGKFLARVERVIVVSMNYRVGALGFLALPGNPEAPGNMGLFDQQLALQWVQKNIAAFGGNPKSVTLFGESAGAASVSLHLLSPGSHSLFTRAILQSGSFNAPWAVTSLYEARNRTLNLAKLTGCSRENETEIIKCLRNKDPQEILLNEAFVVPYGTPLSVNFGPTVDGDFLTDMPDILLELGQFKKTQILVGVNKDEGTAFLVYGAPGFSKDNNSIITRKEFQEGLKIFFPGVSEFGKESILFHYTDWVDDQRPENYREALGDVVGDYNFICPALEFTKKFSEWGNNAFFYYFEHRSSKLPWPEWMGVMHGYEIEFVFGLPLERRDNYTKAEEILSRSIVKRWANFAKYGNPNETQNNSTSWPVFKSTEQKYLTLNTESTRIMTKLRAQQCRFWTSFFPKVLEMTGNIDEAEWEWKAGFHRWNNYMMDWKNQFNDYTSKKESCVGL

## COc1cc2c(cc1OCc1ccccc1)CCC(C)(CC(=O)NCCCCCCCCNc1c3c(nc4cc(Cl)ccc14)CCCC3)O2 (configuration not stated)
[1]
  IC50: 8310 nM
[2]
  Activity: inactive
[3]
  Activity: inactive
[4]
  Activity: inactive
[5]
  Activity: Toxic
[6]
  Activity: Non-Toxic
[7]
  Activity: inactive
[8]
  IC50: 100 nM
[9]
  Activity: Toxic
[10]
  Activity: Active
[11]
  Activity: inactive
[12]
  Activity: Toxic
[13]
  IC50: 10.4 nM
[14]
  Activity: Active
[15]
  Activity: Active
[16]
  Activity: inactive
[17]
  Activity: Toxic
[18]
  Activity: inactive
[19]
  Activity: Non-Toxic
[20]
  Activity: inactive
[21]
  Activity: inactive
[22]
  Papp: 12.3 ×10⁻⁶ cm/s
